Source: ChEMBL document CHEMBL1201861, “Genomics of Drug Sensitity in Cancer screening data, Wellcome Trust Sanger Institute”
Values joined by “and” are separate entries in the source; they are usually repeats but may differ in a detail not shown here. Identical values can stand only once. Where a SMILES comes first, the peptide text is derived from it. The star is where a group is joined. Cbz = O=C(OCc1ccccc1)*

Legend:
Assay in all cases: cells
ES8 = type: functional, cell-based, Homo sapiens;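 note: growth inhibition of human ES8 cells, read out with a cell viability assay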
Description: SANGER: Inhibition of human ES8 cell growth in a cell viability assay.

NMC-G1 = type: functional, cell-based, Homo sapiens;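 note: growth inhibition of the NMC-G1 cell line, measured with a cell viability read-out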
Description: SANGER: Inhibition of human NMC-G1 cell growth in a cell viability assay.

ES6 = type: functional, cell-based; details: Homo sapiens;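 note: growth inhibition of human ES6 cells, read out with a cell viability assay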
Description: SANGER: Inhibition of human ES6 cell growth in a cell viability assay.

EW-1 = type: functional, cell-based, Homo sapiens
Description: SANGER: Inhibition of human EW-1 cell growth in a cell viability assay.

HCC2157 = type: functional, cell-based, Homo sapiens;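 note: growth inhibition of the cancer cell line, read out as cell viability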
Description: SANGER: Inhibition of human HCC2157 cell growth in a cell viability assay.

OMC-1 = type: functional, cell-based, Homo sapiens;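 note: growth inhibition of the OMC-1 cell line, measured by a cell viability assay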
Description: SANGER: Inhibition of human OMC-1 cell growth in a cell viability assay.

GR-ST = type: functional, cell-based, Homo sapiens
Description: SANGER: Inhibition of human GR-ST cell growth in a cell viability assay.

HH = type: functional, cell-based, Homo sapiens
Description: SANGER: Inhibition of human HH cell growth in a cell viability assay.

LB771-HNC = type: functional, cell-based; details: Homo sapiens;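 note: growth inhibition of LB771-HNC human cells, read out with a cell viability assay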
Description: SANGER: Inhibition of human LB771-HNC cell growth in a cell viability assay.

LAN-6 = type: functional, cell-based, Homo sapiens;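 note: growth inhibition of LAN-6 cells, determined with a cell viability assay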
Description: SANGER: Inhibition of human LAN-6 cell growth in a cell viability assay.

ALL-PO = type: functional, cell-based, Homo sapiens;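 note: growth inhibition of ALL-PO cells, read out by a cell viability assay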
Description: SANGER: Inhibition of human ALL-PO cell growth in a cell viability assay.

SF-268 = type: functional, cell-based, Homo sapiens;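 note: growth inhibition of SF-268 cells determined with a cell viability assay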
Description: SANGER: Inhibition of human SF268 cell growth in a cell viability assay.

COLO-824 = type: functional, cell-based, Homo sapiens
Description: SANGER: Inhibition of human COLO-824 cell growth in a cell viability assay.

LNCaP-Clone-FGC = type: functional, cell-based, Homo sapiens
Description: SANGER: Inhibition of human LNCaP-Clone-FGC cell growth in a cell viability assay.

A388 = type: functional, cell-based; details: Homo sapiens;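 note: growth inhibition of human A388 cells, read out with a cell viability assay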
Description: SANGER: Inhibition of human A388 cell growth in a cell viability assay.

D-263MG = type: functional, cell-based, Homo sapiens
Description: SANGER: Inhibition of human D-263MG cell growth in a cell viability assay.

SBC-1 = type: functional, cell-based, Homo sapiens;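 note: cell viability assay measuring growth inhibition of the SBC-1 cell line, IC50 being the concentration that halves growth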
Description: SANGER: Inhibition of human SBC-1 cell growth in a cell viability assay.

KARPAS-45 = type: functional, cell-based, Homo sapiens;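 note: inhibition of cell line growth, read out through a viability assay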
Description: SANGER: Inhibition of human KARPAS-45 cell growth in a cell viability assay.

NCI-H1581 = type: functional, cell-based, Homo sapiens;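 note: cell growth inhibition read out by a viability assay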
Description: SANGER: Inhibition of human NCI-H1581 cell growth in a cell viability assay.

MOLT-16 = type: functional, cell-based, Homo sapiens;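 note: growth inhibition of human MOLT-16 cells, read out with a cell viability assay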
Description: SANGER: Inhibition of human MOLT-16 cell growth in a cell viability assay.

ES7 = type: functional, cell-based, Homo sapiens;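 note: growth inhibition of cultured human ES7 cells, read out as cell viability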
Description: SANGER: Inhibition of human ES7 cell growth in a cell viability assay.

NCI-H82 = type: functional, cell-based, Homo sapiens;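 note: growth inhibition of NCI-H82 cells, measured with a cell viability readout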
Description: SANGER: Inhibition of human NCI-H82 cell growth in a cell viability assay.

SCH = type: functional, cell-based, Homo sapiens;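 note: growth inhibition of human SCH cells, read out in a cell viability assay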
Description: SANGER: Inhibition of human SCH cell growth in a cell viability assay.

NCI-H1155 = type: functional, cell-based, Homo sapiens;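 note: cell growth inhibition measured by a viability assay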
Description: SANGER: Inhibition of human NCI-H1155 cell growth in a cell viability assay.

COR-L88 = type: functional, cell-based, Homo sapiens;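 note: growth inhibition of COR-L88 cells, read out with a cell viability assay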
Description: SANGER: Inhibition of human COR-L88 cell growth in a cell viability assay.

LS-1034 = type: functional, cell-based, Homo sapiens
Description: SANGER: Inhibition of human LS-1034 cell growth in a cell viability assay.

MZ2-MEL = type: functional, cell-based, Homo sapiens;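 note: growth inhibition of MZ2-MEL cells read out with a cell viability assay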
Description: SANGER: Inhibition of human MZ2-MEL cell growth in a cell viability assay.

CAS-1 = type: functional, cell-based, Homo sapiens;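 note: growth inhibition of CAS-1 cells, measured with a cell viability assay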
Description: SANGER: Inhibition of human CAS-1 cell growth in a cell viability assay.

HCC1187 = type: functional, cell-based, Homo sapiens;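 note: growth inhibition of HCC1187 cells, read out with a cell viability assay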
Description: SANGER: Inhibition of human HCC1187 cell growth in a cell viability assay.

HCE-T = type: functional, cell-based, Homo sapiens;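 note: cell viability assay read-out, reporting inhibition of HCE-T cell growth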
Description: SANGER: Inhibition of human HCE-T cell growth in a cell viability assay.

D-502MG = type: functional, cell-based, Homo sapiens
Description: SANGER: Inhibition of human D-502MG cell growth in a cell viability assay.

NB69 = type: functional, cell-based, Homo sapiens;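 note: growth inhibition of NB69 cells, determined by a cell viability assay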
Description: SANGER: Inhibition of human NB69 cell growth in a cell viability assay.

EW-16 = type: functional, cell-based, Homo sapiens;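 note: growth inhibition of human EW-16 cells, read out as cell viability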
Description: SANGER: Inhibition of human EW-16 cell growth in a cell viability assay.

DJM-1 = type: functional, cell-based, Homo sapiens;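 note: growth inhibition of human DJM-1 cells, read out by a cell viability assay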
Description: SANGER: Inhibition of human DJM-1 cell growth in a cell viability assay.

Ramos-2G6-4C10 = type: functional, cell-based, Homo sapiens;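 note: growth inhibition of the cell line, measured by a cell viability read-out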
Description: SANGER: Inhibition of human Ramos-2G6-4C10 cell growth in a cell viability assay.

NCI-H720 = type: functional, cell-based, Homo sapiens;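 note: growth inhibition of human NCI-H720 cells determined by a cell viability assay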
Description: SANGER: Inhibition of human NCI-H720 cell growth in a cell viability assay.

P30-OHK = type: functional, cell-based, Homo sapiens;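 note: growth inhibition of the P30-OHK cell line, read out with a cell viability assay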
Description: SANGER: Inhibition of human P30-OHK cell growth in a cell viability assay.

TE-9 = type: functional, cell-based, Homo sapiens;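 note: cell growth inhibition, measured with a cell viability readout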
Description: SANGER: Inhibition of human TE-9 cell growth in a cell viability assay.

LB996-RCC = type: functional, cell-based, Homo sapiens
Description: SANGER: Inhibition of human LB996-RCC cell growth in a cell viability assay.

TE-6 = type: functional, cell-based, Homo sapiens;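 note: growth inhibition of TE-6 cells, read out with a cell viability assay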
Description: SANGER: Inhibition of human TE-6 cell growth in a cell viability assay.

SW872 = type: functional, cell-based, Homo sapiens;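 note: growth inhibition of SW872 cells, read out by a viability assay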
Description: SANGER: Inhibition of human SW872 cell growth in a cell viability assay.

NCI-H1304 = type: functional, cell-based, Homo sapiens;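 note: growth inhibition of the cancer cell line, measured in a cell viability assay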
Description: SANGER: Inhibition of human NCI-H1304 cell growth in a cell viability assay.

ML-2 = type: functional, cell-based, Homo sapiens;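 note: growth inhibition of ML-2 cells, measured with a cell viability readout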
Description: SANGER: Inhibition of human ML-2 cell growth in a cell viability assay.

NB5 = type: functional, cell-based, Homo sapiens;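 note: growth inhibition of NB5 cells, read out as cell viability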
Description: SANGER: Inhibition of human NB5 cell growth in a cell viability assay.

SK-N-FI = type: functional, cell-based, Homo sapiens;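 note: cell viability assay measuring growth inhibition of human SK-N-FI cells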
Description: SANGER: Inhibition of human SK-N-FI cell growth in a cell viability assay.

RPMI-8226 = type: functional, cell-based, Homo sapiens
Description: SANGER: Inhibition of human RPMI-8226 cell growth in a cell viability assay.

SK-UT-1 = type: functional, cell-based, Homo sapiens; details: sk-ut-1;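 note: growth inhibition of SK-UT-1 cells, measured by a cell viability assay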
Description: SANGER: Inhibition of human SK-UT-1 cell growth in a cell viability assay.

NCI-H1648 = type: functional, cell-based, Homo sapiens;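 note: cell viability assay measuring inhibition of NCI-H1648 cell growth, from the Sanger screening data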
Description: SANGER: Inhibition of human NCI-H1648 cell growth in a cell viability assay.

K5 = type: functional, cell-based, Homo sapiens; details: k5
Description: SANGER: Inhibition of human K5 cell growth in a cell viability assay.

In the case of `NC1(c2ccc(-c3nc4ccn5c(=O)[nH]nc5c4cc3-c3ccccc3)cc2)CCC1` [MK-2206], the IC50 (ES8; Homo sapiens, ES8) is reported as 2490 nM, the IC50 (NMC-G1; Homo sapiens, NMC-G1) is reported as > 4000 nM and the IC50 (ES6) is reported as > 4000 nM. For the same molecule, the IC50 (EW-1; Homo sapiens, EW-1) was > 4000 nM, the IC50 (HCC2157; Homo sapiens, HCC2157) was 3380 nM and the IC50 (OMC-1; Homo sapiens, OMC-1) was 1750 nM. For the same molecule, the IC50 (GR-ST; Homo sapiens, GR-ST) was 3050 nM, the IC50 (HH; Homo sapiens, HH) was 303 nM and the IC50 (LB771-HNC) was > 4000 nM. The IC50 (LAN-6; Homo sapiens, LAN-6) was > 4000 nM, the IC50 (ALL-PO; Homo sapiens, ALL-PO) was > 4000 nM and the IC50 (SF-268; Homo sapiens, SF-268) was > 4000 nM. For the same molecule, the IC50 (COLO-824; Homo sapiens, COLO-824) was > 4000 nM, the IC50 (LNCaP-Clone-FGC; Homo sapiens, LNCaP-Clone-FGC) was 610 nM and the IC50 (A388) was > 4000 nM. The IC50 (D-263MG; Homo sapiens, D-263MG) was > 4000 nM, the IC50 (SBC-1; Homo sapiens, SBC-1) was 440 nM and the IC50 (KARPAS-45; Homo sapiens, KARPAS-45) was 373 nM. The IC50 (NCI-H1581; Homo sapiens, NCI-H1581) was > 4000 nM, the IC50 (MOLT-16; Homo sapiens, MOLT-16) was 303 nM and the IC50 (ES7; Homo sapiens, ES7) was > 4000 nM. The IC50 (NCI-H82; Homo sapiens, NCI-H82) was > 4000 nM, the IC50 (SCH; Homo sapiens, SCH) was > 4000 nM and the IC50 (NCI-H1155; Homo sapiens, NCI-H1155) was > 4000 nM. For the same molecule, the IC50 (COR-L88; Homo sapiens, COR-L88) was > 4000 nM, the IC50 (LS-1034; Homo sapiens, LS-1034) was > 4000 nM and the IC50 (MZ2-MEL; Homo sapiens, MZ2-MEL) was > 4000 nM. For the same molecule, the IC50 (CAS-1; Homo sapiens, CAS-1) was > 4000 nM, the IC50 (HCC1187; Homo sapiens, HCC1187) was > 4000 nM and the IC50 (HCE-T; Homo sapiens, HCE-T) was > 4000 nM. For the same molecule, the IC50 (D-502MG; Homo sapiens, D-502MG) was > 4000 nM, the IC50 (NB69; Homo sapiens, NB69) was 2390 nM and the IC50 (EW-16; Homo sapiens, EW-16) was 3220 nM. The IC50 (DJM-1; Homo sapiens, DJM-1) was > 4000 nM, the IC50 (Ramos-2G6-4C10; Homo sapiens, Ramos-2G6-4C10) was 1340 nM and the IC50 (NCI-H720; Homo sapiens, NCI-H720) was 377 nM. For the same molecule, the IC50 (P30-OHK; Homo sapiens, P30-OHK) was 3810 nM, the IC50 (TE-9; Homo sapiens, TE-9) was > 4000 nM and the IC50 (LB996-RCC; Homo sapiens, LB996-RCC) was > 4000 nM. For the same molecule, the IC50 (TE-6; Homo sapiens, TE-6) was > 4000 nM, the IC50 (SW872; Homo sapiens, SW872) was > 4000 nM and the IC50 (NCI-H1304; Homo sapiens, NCI-H1304) was > 4000 nM. For the same molecule, the IC50 (ML-2; Homo sapiens, ML-2) was > 4000 nM, the IC50 (NB5; Homo sapiens, NB5) was > 4000 nM and the IC50 (SK-N-FI; Homo sapiens, SK-N-FI) was > 4000 nM. For the same molecule, the IC50 (RPMI-8226; Homo sapiens, RPMI-8226) was 2630 nM.
With `CC(C)C[C@@H](C=O)NC(=O)[C@H](CC(C)C)NC(=O)[C@H](CC(C)C)NC(=O)OCc1ccccc1` [MG-132] (Cbz-Leu-Leu-Leu-aldehyde) the IC50 (ES8; es8) was 248 nM and > 1000 nM, the IC50 (NMC-G1; nmc-g1) was > 1000 nM and the IC50 (EW-1; ew-1) was 210 nM and > 1000 nM. The IC50 (SK-UT-1) was 220 nM and > 1000 nM, the IC50 (HCC2157; hcc2157) was > 1000 nM and the IC50 (OMC-1; omc-1) was > 1000 nM. The IC50 (GR-ST; gr-st) was > 1000 nM, the IC50 (HH; Homo sapiens, HH) was 329 nM and the IC50 (HH; hh) was 571 nM. For the same molecule, the IC50 (LAN-6; lan-6) was 313 nM and > 1000 nM, the IC50 (ALL-PO; all-po) was > 1000 nM and the IC50 (SF-268; sf-268) was 656 nM and > 1000 nM. The IC50 (COLO-824; colo-824) was > 1000 nM, the IC50 (LNCaP-Clone-FGC; Homo sapiens, LNCaP-Clone-FGC) was > 1000 nM and the IC50 (LNCaP-Clone-FGC; lncap-clone-fgc) was > 1000 nM. The IC50 (D-263MG; d-263mg) was 160 nM and > 1000 nM, the IC50 (SBC-1; Homo sapiens, SBC-1) was > 1000 nM and the IC50 (SBC-1; sbc-1) was > 1000 nM. For the same molecule, the IC50 (KARPAS-45; karpas-45) was > 1000 nM, the IC50 (NCI-H1581; Homo sapiens, NCI-H1581) was > 1000 nM and the IC50 (NCI-H1581; nci-h1581) was > 1000 nM. The IC50 (MOLT-16; molt-16) was 295 nM and > 1000 nM, the IC50 (ES7; es7) was 897 nM and > 1000 nM and the IC50 (NCI-H82; nci-h82) was > 1000 nM. The IC50 (SCH; sch) was > 1000 nM, the IC50 (NCI-H1155; nci-h1155) was > 1000 nM and the IC50 (COR-L88; cor-l88) was > 1000 nM. The IC50 (LS-1034; ls-1034) was > 1000 nM, the IC50 (MZ2-MEL; mz2-mel) was 176 nM and > 1000 nM and the IC50 (CAS-1; cas-1) was 155 nM and > 1000 nM. For the same molecule, the IC50 (HCC1187; hcc1187) was > 1000 nM, the IC50 (HCE-T; hce-t) was > 1000 nM and the IC50 (D-502MG; d-502mg) was > 1000 nM. For the same molecule, the IC50 (NB69; nb69) was > 1000 nM, the IC50 (EW-16; ew-16) was > 1000 nM and the IC50 (DJM-1; djm-1) was > 1000 nM. For the same molecule, the IC50 (Ramos-2G6-4C10; Homo sapiens, Ramos-2G6-4C10) was > 1000 nM, the IC50 (Ramos-2G6-4C10; ramos-2g6-4c10) was > 1000 nM and the IC50 (NCI-H720; nci-h720) was > 1000 nM. For the same molecule, the IC50 (NCI-H1648; Homo sapiens, NCI-H1648) was > 1000 nM, the IC50 (NCI-H1648; nci-h1648) was > 1000 nM and the IC50 (P30-OHK; p30-ohk) was > 1000 nM. For the same molecule, the IC50 (K5) was > 1000 nM, the IC50 (TE-9; te-9) was 610 nM and > 1000 nM and the IC50 (LB996-RCC; lb996-rcc) was > 1000 nM. For the same molecule, the IC50 (TE-6; te-6) was > 1000 nM, the IC50 (SW872; sw872) was 657 nM and > 1000 nM and the IC50 (NCI-H1304; Homo sapiens, NCI-H1304) was > 1000 nM. The IC50 (NCI-H1304; nci-h1304) was > 1000 nM, the IC50 (ML-2; ml-2) was 118 nM and 473 nM and the IC50 (NB5; nb5) was > 1000 nM. The IC50 (SK-N-FI; sk-n-fi) was > 1000 nM and the IC50 (RPMI-8226; rpmi-8226) was > 1000 nM and 423 nM.
